From article PMC11714206, “Massively Parallel Screening of Toll/Interleukin‐1 Receptor (TIR)‐Derived Peptides Reveals Multiple Toll‐Like Receptors (TLRs)‐Targeting Immunomodulatory Peptides” (Advanced Science, 2024)

Biological target: T1, MyD88^TIR (Homo sapiens, UniProt Q99836)
T1 construct: MyD88 (residues 148–296); 6xHis; made in house; host or cells: E. coli BL21 (DE3)
Test: T‐Surf phage library (P8 and P3) selection against MyD88^TIR, four rounds, NGS read counts
Format: binding
Conditions: for P8_MyD88 Rank (after) / P8_MyD88 Rank (before): P8 library; for P3_MyD88 Rank (after) / P3_MyD88 Rank (before): P3 library; for Population: 4th round of selection against MyD88 TIR, share of NGS reads
Method in brief: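 Read counts come from NGS of phage pools after the fourth selection round, barcoded by 20-cycle PCR and filtered for quality ≥30. Each round: phage incubated 1 h at RT on immobilised TIR protein (5 µg mL^−1, BSA-blocked), washed, HCl-eluted and amplified in E. coli TG1.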

[1] = P8_MyD88: rank by count after grouping
[2] = P8_MyD88: rank by count before grouping
[3] = selection against MyD88, rank by count after grouping
[4] = selection against MyD88, rank by count before grouping
[5] = 4R selection against MyD88, rank after grouping
[6] = 4R selection against MyD88, rank before grouping
[7] = selection against MyD88, rank after grouping
[8] = selection against MyD88, rank before grouping
[9] = selection against MyD88 TIR, rank by count after grouping
[10] = selection against MyD88 TIR, rank by count before grouping
[11] = P3_MyD88 pool: P3 T-Surf phage library
[12] = P8_MyD88: rank by NGS read count after grouping
[13] = P8_MyD88: rank by NGS read count before grouping
[14] = P8_MyD88 pool: P8 T-Surf phage library
[15] = P3_MyD88: rank by count after grouping
[16] = P3_MyD88: rank by count before grouping

T1 sequence (Q99836 148-296): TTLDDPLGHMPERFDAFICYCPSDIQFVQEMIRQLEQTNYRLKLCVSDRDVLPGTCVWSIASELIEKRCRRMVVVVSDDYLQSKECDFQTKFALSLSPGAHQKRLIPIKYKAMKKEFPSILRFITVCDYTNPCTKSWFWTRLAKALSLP

Substance: VQWEDPWFWDKLAYEM
- Rank (after) [1]: 460
- Rank (before) [2]: 2253

Substance: DPQELDWIYQRLVSLF
- P8_MyD88 Rank (after) [3]: 714
- P8_MyD88 Rank (before) [4]: 2987

Substance: SSFREALWRLIELSTK
- P3_MyD88 Rank (after) [5]: 667
- P3_MyD88 Rank (before) [6]: 3223

Substance: LGYHWMGWEYFVGIED
- P8_MyD88 Rank (after) [7]: 560
- P8_MyD88 Rank (before) [8]: 3298

Substance: LGYHWIDWENLVGFED
- P8_MyD88 Rank (after) [5]: 630
- P8_MyD88 Rank (before) [6]: 3283

Substance: LLAHEISKNMKIFATI
- P3_MyD88 Rank (after) [7]: 523
- P3_MyD88 Rank (before) [8]: 2262

Substance: WALIELRTIMELWSGN
- P8_MyD88 Rank (after) [9]: 220
- P8_MyD88 Rank (before) [10]: 377

Substance: SSTWALDELERILEYM
- P8_MyD88 Rank (after) [9]: 198
- P8_MyD88 Rank (before) [10]: 294

Substance: SSFRECLWRLLELSKK
- Population [11]: 0.00466%

Substance: NHDLDLPRGKAIKPEILG
- P3_MyD88 Rank (after) [5]: 606
- P3_MyD88 Rank (before) [6]: 3460

Substance: DLLRHLIEAFSRMHIN
- Rank (after) [12]: 940
- Rank (before) [13]: 2389

Substance: WILRAIWNSFGIVCI
- Rank (after) [1]: 475
- Rank (before) [2]: 1653

Substance: DIVAYVMQKLMKHQVF
- Rank (after) [1]: 154
- Rank (before) [2]: 169
- Population [14]: 0.00848%

Substance: PSEVRKQTGSLAKALCD
- P3_MyD88 Rank (after) [7]: 488
- P3_MyD88 Rank (before) [8]: 2753

Substance: NPADLDWFYERLVSLF
- Rank (after) [12]: 939
- Rank (before) [13]: 3878

Substance: DHHLDLPRGKRLNRKFW
- Rank (after) [15]: 153
- Rank (before) [16]: 944

Substance: LVAHEISKKLKNFPTI
- P3_MyD88 Rank (after) [7]: 518
- P3_MyD88 Rank (before) [8]: 2289

Substance: DPQDLELFYEQLVRPF
- Rank (after) [1]: 459
- Rank (before) [2]: 2844

Substance: YASSIWALNELIRILE
- Rank (after) [1]: 138
- Rank (before) [2]: 149
- Population [14]: 0.0108%

Substance: YVDSPWALDELVKILQ
- P8_MyD88 Rank (after) [9]: 207
- P8_MyD88 Rank (before) [10]: 300

Substance: SRDYATSPWALDELLR
- P3_MyD88 Rank (after) [5]: 627
- P3_MyD88 Rank (before) [6]: 3103

Substance: WALDELLQILNAREMF
- Rank (after) [1]: 415
- Rank (before) [2]: 1464

Substance: EWIREQLRPALEKAGKL
- Rank (after) [15]: 144
- Rank (before) [16]: 649

Substance: EWMREQRRPALKERLP
- P3_MyD88 Rank (after) [5]: 599
- P3_MyD88 Rank (before) [6]: 2180

Substance: YASYDDNDYYWLTNVLLRLL
- P8_MyD88 Rank (after) [3]: 710
- P8_MyD88 Rank (before) [4]: 1778

Substance: YLKWGYPRFWDRLRFV
- P3_MyD88 Rank (after) [3]: 729
- P3_MyD88 Rank (before) [4]: 1603

Substance: YAFTGHLHRYLVQRGV
- Population [11]: 0.00378%

Substance: HWIDWEYFVALKIIL
- Rank (after) [1]: 427
- Rank (before) [2]: 1236

Substance: WALNELLEILKAREDI
- Rank (after) [1]: 115
- Rank (before) [2]: 123
- Population [14]: 0.0173%

Substance: DPPLLHGLYERLVILF
- P8_MyD88 Rank (after) [7]: 485
- P8_MyD88 Rank (before) [8]: 2602

Substance: EWIWDKLIYALSRNPH
- P3_MyD88 Rank (after) [5]: 586
- P3_MyD88 Rank (before) [6]: 2127

Substance: LNVEGWRQALEKAGKL
- Rank (after) [15]: 131
- Rank (before) [16]: 2401

Substance: QLIQQWIELHLHQLHL
- P3_MyD88 Rank (after) [7]: 499
- P3_MyD88 Rank (before) [8]: 2880

Substance: AFSHWALVELLEAIEQ
- P8_MyD88 Rank (after) [9]: 226
- P8_MyD88 Rank (before) [10]: 385

Substance: DPQDLDWFYERLVNLL
- Rank (after) [1]: 98
- Rank (before) [2]: 349

Substance: SSFREGLWRLPELSRK
- Rank (after) [15]: 121
- Rank (before) [16]: 3183

Substance: WALEELRLIMELHSV
- P8_MyD88 Rank (after) [7]: 504
- P8_MyD88 Rank (before) [8]: 1525

Substance: YPQELDWCYERLVSLL
- P8_MyD88 Rank (after) [3]: 762
- P8_MyD88 Rank (before) [4]: 2102

Substance: DPQVPEWFYNRLFCQL
- Rank (after) [12]: 959
- Rank (before) [13]: 2651

Substance: VANIGLIGSILWALK
- Rank (after) [12]: 942
- Rank (before) [13]: 2163

Substance: DPQDLEWFYERLGSLF
- P8_MyD88 Rank (after) [9]: 247
- P8_MyD88 Rank (before) [10]: 2852

Substance: RERPVGAQRGVRSLAT
- Rank (after) [15]: 469
- Rank (before) [16]: 3286

Substance: YASSWWLRELLQIA
- P8_MyD88 Rank (after) [3]: 686
- P8_MyD88 Rank (before) [4]: 1851

Substance: WFWDKQKYTLPHRYEP
- P3_MyD88 Rank (after) [5]: 583
- P3_MyD88 Rank (before) [6]: 1418

Substance: SSFREGL*RLLELSKK
- Population [11]: 0.00466%

Substance: WALQELLEILKANREL
- Rank (after) [1]: 149
- Rank (before) [2]: 168
- Population [14]: 0.00848%

Substance: LKVESWRQALEKAGKLRYAM
- P3_MyD88 Rank (after) [3]: 707
- P3_MyD88 Rank (before) [4]: 2496

Substance: WFWQKLNYAMPHLARL
- P8_MyD88 Rank (after) [9]: 200
- P8_MyD88 Rank (before) [10]: 271

Substance: FLSYRSLEKRFGPIGP
- Rank (after) [15]: 190
- Rank (before) [16]: 1344

Substance: WWIQALAEVANMAGED
- Rank (after) [1]: 134
- Rank (before) [2]: 158
- Population [14]: 0.00925%

Substance: DPQDRDWIYERLVSLF
- Rank (after) [1]: 423
- Rank (before) [2]: 2956

Substance: LGYHWTDWEYFVGIEA
- Rank (after) [1]: 429
- Rank (before) [2]: 3305

Substance: DYASSWWALDELLRILY
- P8_MyD88 Rank (after) [5]: 650
- P8_MyD88 Rank (before) [6]: 2504

Substance: SSFREGVWRLPEMSTK
- P3_MyD88 Rank (after) [5]: 660
- P3_MyD88 Rank (before) [6]: 3149

Substance: DSLFWDRLLPNLEGPAG
- P8_MyD88 Rank (after) [5]: 645
- P8_MyD88 Rank (before) [6]: 3104

Substance: ELDFSHFWLFDGHAGGEA
- Population [14]: 0.02%

Substance: AVAHEISKKMKIFATI
- Population [11]: 0.00262%

Substance: PQDQEWFYERMVSLIL
- P8_MyD88 Rank (after) [7]: 517
- P8_MyD88 Rank (before) [8]: 3491

Substance: LGYHWIAWECFVGIED
- Rank (after) [1]: 426
- Rank (before) [2]: 3247

Substance: HSEWACHELYFSHFWP
- P3_MyD88 Rank (after) [7]: 551
- P3_MyD88 Rank (before) [8]: 2827

Substance: ELDFASNMEQFWDRLYY
- Rank (after) [12]: 935
- Rank (before) [13]: 3177

Substance: DPQDLQSLYEGLVSLV
- Rank (after) [1]: 467
- Rank (before) [2]: 2944

Substance: SELRVVDDGRVSPMAM
- Rank (after) [15]: 464
- Rank (before) [16]: 3019

Substance: NGQSSRFKDDADLVGQ
- P3_MyD88 Rank (after) [3]: 678
- P3_MyD88 Rank (before) [4]: 3337

Substance: PRDLEWFYEHLVSLIL
- P8_MyD88 Rank (after) [3]: 736
- P8_MyD88 Rank (before) [4]: 3409

Substance: NQWRNALTAAAHLTGW
- P3_MyD88 Rank (after) [3]: 721
- P3_MyD88 Rank (before) [4]: 3494

Substance: YAFTGHPPRYLVQRGV
- Rank (after) [15]: 433
- Rank (before) [16]: 1536

Substance: LGYRWIVWEYFVGIED
- Rank (after) [1]: 400
- Rank (before) [2]: 3224

Substance: VQWDDPWFWDKLAYA
- Rank (after) [1]: 417
- Rank (before) [2]: 1009

Substance: YILYEDQTIKFVFRDFIQEL
- Rank (after) [1]: 385
- Rank (before) [2]: 988

Substance: YTALTNRGFHTFRDHH
- P3_MyD88 Rank (after) [3]: 687
- P3_MyD88 Rank (before) [4]: 1651

Substance: DPQDLGCFYERLVSLF
- P8_MyD88 Rank (after) [5]: 611
- P8_MyD88 Rank (before) [6]: 2721

Substance: DWVWDELLKILYANETM
- P8_MyD88 Rank (after) [5]: 647
- P8_MyD88 Rank (before) [6]: 2457

Substance: DPQDLDWFYERLVSQM
- Rank (after) [1]: 183
- Rank (before) [2]: 466

Substance: DPQDLEWFYERLVSLF
- Population [14]: 0.0112%

Substance: DPQEQVGICVRLMEAL
- P8_MyD88 Rank (after) [5]: 585
- P8_MyD88 Rank (before) [6]: 3020

Substance: AVEKETDKIQTPPKNA
- Rank (after) [15]: 173
- Rank (before) [16]: 1939

Substance: YLRWGYPWFGDRLRFA
- P3_MyD88 Rank (after) [7]: 539
- P3_MyD88 Rank (before) [8]: 1562

Substance: DPQDLDWFSERLVILF
- Rank (after) [12]: 1012
- Rank (before) [13]: 2747

Substance: DPQDLDCFDERLGSRV
- P8_MyD88 Rank (after) [5]: 627
- P8_MyD88 Rank (before) [6]: 2697

Substance: EWIREQLRPALKNVC
- P3_MyD88 Rank (after) [7]: 520
- P3_MyD88 Rank (before) [8]: 2142

Substance: DLCDILSQNGIPTFFD
- P8_MyD88 Rank (after) [7]: 534
- P8_MyD88 Rank (before) [8]: 2582
